Measured values as given in patent publication US10392392B2, “Substituted imidazo[1,2-B]pyridazines as protein kinase inhibitors” (Tolero Pharmaceuticals, Inc., priority 2011, dated 2019).

Legend:
22RV1/PIM-1 xenografts = assay: 22RV1/PIM-1 over-expression tumor xenograft; assay type: in vivo, mouse; conditions: mice bearing 22RV1 or 22RV1/PIM-1 xenografts
Excerpt: (§1) Male and female Nu/Nu mice were purchased from Harlan Sprague Dawley (Indianapolis, Ind.). Female Nu/Nu mice were used for all xenograft evaluations with the exception of the PC-3 xenografts where male Nu/Nu mice were used. Cell lines were expanded in vitro in complete media, and if adherent were harvested by trypsin-EDTA, centrifuged and resuspended in PBS 1:1 with Matrigel (BD Bioscienes). Cells were inoculated subcutaneously in the right hind flank of mice. When tumors reached 100-200 mm^3 by caliper measurement, mice were randomized and dosing of SGI-9481 or vehicle control began and continued every day for 5 days (QD×5) with 2 days off for 18-21 days. Tumor volumes and body weights were determined twice a week, and tumor weights were measured at the completion of the translational xenograft studies.
(§2) The prostate cancer cell line 22RV1 engineered to over-express PIM-1 as previously described (Mumenthaler, et al, Mol. Cancer Ther., 2009, 8(10)2882-93) was evaluated in vivo. A second model engineered to over-express PIM-2 was established using the NIH-3T3 mouse fibroblast cell line.

NIH-3T3/PIM-2 xenografts = assay: NIH-3T3/PIM-2 over-expression tumor xenograft; assay type: in vivo, mouse; conditions: mice bearing NIH-3T3 or NIH-3T3/PIM-2 xenografts
Excerpt: as §1, §2

UM-UC-3 cells = assay: Colony formation assay, UM-UC-3; assay type: cell-based
Procedure: (§3) For shRNA growth experiments, 500 UM-UC-3 cells were seeded in a 12-well plate 48 hours post-transduction and cultured for 8-10 days at 37° C. in 5% CO2. Cells were fixed with 4% paraformaldehyde in PBS, washed twice with PBS, and stained with a crystal violet solution (1% crystal violet, 10% ethanol in water). Stained cells were washed thrice with water, and imaged after drying on a GelCount colony counter (Oxford Optronix Ltd., Oxford, UK). Total staining intensity per well was determined by lysis of cells with 200 μl of Triton X-100 lysis buffer (1% Triton X-100, 50 mM Tris-HCl pH 7.4, 150 mM NaCl, 1 mM EDTA). Lysates (100 μl) from each well were transferred to a clear 96-well plate and absorbance at 560 nm was determined on an Envision microplate reader. IC50 values were determined using GraphPad Prism software. For compound treated PC-3 and UM-UC-3, cells were seeded and stained as above, but were incubated with various concentrations of test compound or DMSO one day after seeding.
(§4) Translational models were also explored for PIM dependency using shRNA knockdown. The UM-UC-3 urinary epithelial bladder carcinoma cell line was used to verify and validate dependency on PIM-1 for growth. […] Reduction of PIM-1 mRNA and growth also were observed using both PIM-1 and PIM-2 shRNA in the androgen-independent prostate carcinoma cell line PC-3 (data not shown).

PC-3 cells = assay: Colony formation assay, PC-3; assay type: cell-based
Procedure: as §3, §4

UM-UC-3 xenograft tumors = assay: Established UM-UC-3 mouse xenograft tumors; assay type: in vivo; conditions: oral dosing of 200 mg/kg
Excerpt: as §1, with “When tumors reached 100-200 mm^3 by caliper measurement, mice were randomized and dosing of SGI-9481 or vehicle control began and continued every day for 5 days (QD×5) with 2 days off for 18-21 days.” left out

PC-3 xenograft tumors = assay: Established PC-3 mouse xenograft tumors; assay type: in vivo; conditions: oral dosing of 200 mg/kg
Excerpt: as §1, with “When tumors reached 100-200 mm^3 by caliper measurement, mice were randomized and dosing of SGI-9481 or vehicle control began and continued every day for 5 days (QD×5) with 2 days off for 18-21 days.” left out

[1] = system: ML-2 cells (wild-type FLT3) xenografts; assay: ML-2 (wild-type FLT3) mouse xenograft; assay type: in vivo
Excerpt: as §1

[2] = Pharmacokinetic studies of PC-3 tumor-burdened mice; assay type: in vivo, mouse; conditions: 200 mg/kg dosing
MV-4-11 = assay: In vitro viability assay, MV-4-11; assay type: cell-based
Procedure: (§5) Adherent or suspension cancer cell lines were seeded at 2000-5000 cells/well in a 96-well plate, or 1000-2000 cells/well in a 384-well plate. Suspension cells were treated with drug the same day as seeding, while adherent cells were incubated overnight at 37° C. in 5% CO2 prior to drug treatment. All cells were treated for 72 hours, then lysed with ATPlite (Perkin Elmer) and measured on an Envision microplate reader. IC50 values were determined using GraphPad Prism software.
(§6) Over 35 cell lines were tested, and the most sensitive cell lines from various indications were selected and verified by multiple EC50 determinations (FIG. 6). […] Anti-proliferative activity using PIM-2 shRNA against FLT3-ITD driven leukemia lines has been observed (Adam (2006) Cancer Res 66:3828-35 data not shown).

MOLM-13 = assay: In vitro viability assay, MOLM-13; assay type: cell-based
Procedure: as §5, §6

CC(C)(O)[C@H]1CC[C@H](Nc2ccc3ncc(-c4cccc(C(F)(F)F)c4)n3n2)CC1 [Compound 8-31]
changes in body weight (22RV1/PIM-1 xenografts): No significant changes
changes in body weight (NIH-3T3/PIM-2 xenografts): No significant changes
colony growth (UM-UC-3 cells): reduced
colony growth (PC-3 cells): reduced
changes in body weight or gross adverse toxicity (UM-UC-3 xenograft tumors): no significant changes
tumor growth measured by volume (caliper) and by final tumor weight (UM-UC-3 xenograft tumors): significantly reduced
changes in body weight or gross adverse toxicity (PC-3 xenograft tumors): no significant changes
tumor growth measured by volume (caliper) and by final tumor weight (PC-3 xenograft tumors): significantly reduced
tumor growth [1]: significant tumor growth inhibition
plasma levels [2]: above the in vitro proliferation EC50
tumor tissue levels [2]: above the in vitro proliferation EC50

CC(C)(O)[C@H]1CC[C@H](Nc2ccc3ncc(-c4cccc(C(F)(F)F)c4)n3n2)CC1 [SGI-9481]
sensitivity of cell line (MV-4-11): particularly sensitive
sensitivity of cell line (MOLM-13): particularly sensitive
